Source: ChEMBL document CHEMBL1697731, “Cheminformatics analysis of assertions mined from literature that describe drug-induced liver injury in different species” (Chem Res Toxicol, 2010)

What was measured:
Hepatotoxicity [1] = assay: Literature-mined compound from Fourches et al multi-species drug-induced liver injury (DILI) dataset, effect in rodents; details: rodentia
Hepatotoxicity [2] = assay: Literature-mined compound from Fourches et al multi-species drug-induced liver injury (DILI) dataset, effect in humans; details: human
Hepatotoxicity [3] = assay: Literature-mined compound from Fourches et al multi-species drug-induced liver injury (DILI) dataset, effect in non-rodents

SMILES | Hepatotoxicity (Hepatotoxicity [1]) | Hepatotoxicity (Hepatotoxicity [2]) | Hepatotoxicity (Hepatotoxicity [3]) | Hepatotoxicity (Hepatotoxicity [1]; Liver) | Hepatotoxicity (Hepatotoxicity [2]; Liver) | Hepatotoxicity (Hepatotoxicity [3]; Liver)
Nc1nc2ncc(CNc3ccc(C(=O)N[C@@H](CCC(=O)O)C(=O)O)cc3)nc2c(=O)[nH]1 [FOLIC ACID] | drug-induced liver injury reported | drug-induced liver injury reported | no drug-induced liver injury reported |  |  | 
Cc1cn[nH]c1 [FOMEPIZOLE] | drug-induced liver injury reported | drug-induced liver injury reported | no drug-induced liver injury reported |  |  | 
C=O [FORMALDEHYDE] |  |  |  | drug-induced liver injury reported | drug-induced liver injury reported | no drug-induced liver injury reported
O=C([O-])P(=O)([O-])[O-].[Na+].[Na+].[Na+] [FOSCARNET SODIUM] | drug-induced liver injury reported | no drug-induced liver injury reported | no drug-induced liver injury reported |  |  | 
C[C@@H]1O[C@@H]1P(=O)(O)O [FOSFOMYCIN] | no drug-induced liver injury reported | drug-induced liver injury reported | no drug-induced liver injury reported |  |  | 
CCC(=O)O[C@@H](O[P@](=O)(CCCCc1ccccc1)CC(=O)N1C[C@H](C2CCCCC2)C[C@H]1C(=O)O)C(C)C [FOSINOPRIL] | no drug-induced liver injury reported | drug-induced liver injury reported | no drug-induced liver injury reported |  |  | 
NC[C@@H]1O[C@H](O[C@H]2[C@@H](O)[C@H](O[C@@H]3[C@@H](O)[C@H](N)C[C@H](N)[C@H]3O[C@H]3O[C@H](CN)[C@@H](O)[C@H](O)[C@H]3N)O[C@@H]2CO)[C@H](N)[C@@H](O)[C@@H]1O [FRAMYCETIN] |  |  |  | drug-induced liver injury reported | no drug-induced liver injury reported | no drug-induced liver injury reported
O=P(O)(O)OC[C@H]1O[C@@](O)(COP(=O)(O)O)[C@@H](O)[C@@H]1O [FRUCTOSE 1,6-DIPHOSPHATE] | drug-induced liver injury reported | drug-induced liver injury reported | no drug-induced liver injury reported |  |  | 
O=C(CO)[C@@H](O)[C@H](O)[C@H](O)CO [FRUCTOSE] | drug-induced liver injury reported | drug-induced liver injury reported | drug-induced liver injury reported |  |  | 
c1ccoc1 [FURAN] | drug-induced liver injury reported | no drug-induced liver injury reported | no drug-induced liver injury reported |  |  | 
O=C1OCCN1/N=C/c1ccc([N+](=O)[O-])o1 [FURAZOLIDONE] | drug-induced liver injury reported | no drug-induced liver injury reported | no drug-induced liver injury reported |  |  | 
CC(=O)O[C@H]1C[C@@]2(C)[C@@H](C[C@@H](O)[C@H]3[C@@]4(C)CC[C@@H](O)[C@@H](C)[C@@H]4CC[C@@]32C)/C1=C(\CCC=C(C)C)C(=O)O [FUSIDIC ACID] | no drug-induced liver injury reported | drug-induced liver injury reported | no drug-induced liver injury reported |  |  | 
Nc1nc(O)c2ncn(COC(CO)CO)c2n1 [GANCICLOVIR] | no drug-induced liver injury reported | drug-induced liver injury reported | no drug-induced liver injury reported |  |  | 
COc1c(N2CCNC(C)C2)c(F)cc2c(=O)c(C(=O)O)cn(C3CC3)c12 (stereo not given) [GATIFLOXACIN] | no drug-induced liver injury reported | drug-induced liver injury reported | no drug-induced liver injury reported |  |  | 
COc1cc2ncnc(Nc3ccc(F)c(Cl)c3)c2cc1OCCCN1CCOCC1 [GEFITINIB] | drug-induced liver injury reported | drug-induced liver injury reported | no drug-induced liver injury reported |  |  | 
